Measured values published in PubChem BioAssay AID1224918.

Tested on: MCF7 antiproliferative assay
Test: PubChem AID 1224918

EC50: 70 nM
SMILES: COc1cc(-c2nn(CCN3CCC(N(C)C)CC3)c3ncnc(N)c23)ccc1NC(=O)OC(C)(C)C
